# Reference: ChEMBL document CHEMBL5303573, “Mapping human microbiome drug metabolism by gut bacteria and their genes” (Nature, 2019)
# Conditions: bacteroides thetaiotaomicron, 12 h, 2 µM
# Description: The drug is tested on Bacteroides thetaiotaomicron strain: 7330 for biotransformation. The drug concentrations were measured before and after a 12-h incubation by liquid-chromatography-coupled mass spectrometry (LC–MS)
row,Structure (SMILES),Bacterial Biotransformation
1,Nc1nc2ccc(OC(F)(F)F)cc2s1 [RILUZOLE],Compound metabolized
2,CC(=O)OCC(=O)[C@@]1(O)[C@@H](C)C[C@H]2[C@@H]3CCC4=CC(=O)C=C[C@]4(C)[C@@]3(F)[C@@H](O)C[C@@]21C [BETAMETHASONE ACETATE],Compound metabolized
3,N#Cc1ccc2[nH]cc(CCCCN3CCN(c4ccc5oc(C(N)=O)cc5c4)CC3)c2c1 [VILAZODONE],Compound metabolized

# Conditions: limosilactobacillus reuteri cf48-3a, 12 h, 2 µM
# Description: The drug is tested on Lactobacillus reuteri CF48-3A strain: BEI HM-102 for biotransformation. The drug concentrations were measured before and after a 12-h incubation by liquid-chromatography-coupled mass spectrometry (LC–MS)
row,Structure (SMILES),Bacterial Biotransformation
1,Nc1nc2ccc(OC(F)(F)F)cc2s1 [RILUZOLE],Compound NOT metabolized
2,CC(=O)OCC(=O)[C@@]1(O)[C@@H](C)C[C@H]2[C@@H]3CCC4=CC(=O)C=C[C@]4(C)[C@@]3(F)[C@@H](O)C[C@@]21C [BETAMETHASONE ACETATE],Compound NOT metabolized
3,N#Cc1ccc2[nH]cc(CCCCN3CCN(c4ccc5oc(C(N)=O)cc5c4)CC3)c2c1 [VILAZODONE],Compound NOT metabolized

# Experiment: The drug is tested on Parabacteroides merdae strain: ATCC43184 for biotransformation. The drug concentrations were measured before and after a 12-h incubation by liquid-chromatography-coupled mass spectrometry (LC–MS)
# Conditions: 2 µM
row,Structure (SMILES),Bacterial Biotransformation
1,Nc1nc2ccc(OC(F)(F)F)cc2s1 [RILUZOLE],Compound NOT metabolized
2,N#Cc1ccc2[nH]cc(CCCCN3CCN(c4ccc5oc(C(N)=O)cc5c4)CC3)c2c1 [VILAZODONE],Compound metabolized

# Experiment: The drug is tested on Bacteroides dorei strain: DSM17855 for biotransformation. The drug concentrations were measured before and after a 12-h incubation by liquid-chromatography-coupled mass spectrometry (LC–MS)
# Conditions: phocaeicola dorei, 2 µM
row,Structure (SMILES),Bacterial Biotransformation
1,Nc1nc2ccc(OC(F)(F)F)cc2s1 [RILUZOLE],Compound metabolized
2,CC(=O)OCC(=O)[C@@]1(O)[C@@H](C)C[C@H]2[C@@H]3CCC4=CC(=O)C=C[C@]4(C)[C@@]3(F)[C@@H](O)C[C@@]21C [BETAMETHASONE ACETATE],Compound metabolized
3,N#Cc1ccc2[nH]cc(CCCCN3CCN(c4ccc5oc(C(N)=O)cc5c4)CC3)c2c1 [VILAZODONE],Compound metabolized

# Experiment: The drug is tested on Collinsella intestinalis strain: DSM13280 for biotransformation. The drug concentrations were measured before and after a 12-h incubation by liquid-chromatography-coupled mass spectrometry (LC–MS)
# Conditions: 2 µM
row,Structure (SMILES),Bacterial Biotransformation
1,Nc1nc2ccc(OC(F)(F)F)cc2s1 [RILUZOLE],Compound NOT metabolized
2,CC(=O)OCC(=O)[C@@]1(O)[C@@H](C)C[C@H]2[C@@H]3CCC4=CC(=O)C=C[C@]4(C)[C@@]3(F)[C@@H](O)C[C@@]21C [BETAMETHASONE ACETATE],Compound NOT metabolized
3,N#Cc1ccc2[nH]cc(CCCCN3CCN(c4ccc5oc(C(N)=O)cc5c4)CC3)c2c1 [VILAZODONE],Compound NOT metabolized

# Experiment: The drug is tested on Ruminococcus gnavus strain: ATCC29149 for biotransformation. The drug concentrations were measured before and after a 12-h incubation by liquid-chromatography-coupled mass spectrometry (LC–MS)
# Conditions: mediterraneibacter gnavus, 2 µM
row,Structure (SMILES),Bacterial Biotransformation
1,Nc1nc2ccc(OC(F)(F)F)cc2s1 [RILUZOLE],Compound NOT metabolized
2,CC(=O)OCC(=O)[C@@]1(O)[C@@H](C)C[C@H]2[C@@H]3CCC4=CC(=O)C=C[C@]4(C)[C@@]3(F)[C@@H](O)C[C@@]21C [BETAMETHASONE ACETATE],Compound NOT metabolized
3,N#Cc1ccc2[nH]cc(CCCCN3CCN(c4ccc5oc(C(N)=O)cc5c4)CC3)c2c1 [VILAZODONE],Compound NOT metabolized

# Experiment: The drug is tested on Bacteroides fragilis strain: HMW610 for biotransformation. The drug concentrations were measured before and after a 12-h incubation by liquid-chromatography-coupled mass spectrometry (LC–MS)
# Conditions: 2 µM
row,Structure (SMILES),Bacterial Biotransformation
1,Nc1nc2ccc(OC(F)(F)F)cc2s1 [RILUZOLE],Compound metabolized
2,N#Cc1ccc2[nH]cc(CCCCN3CCN(c4ccc5oc(C(N)=O)cc5c4)CC3)c2c1 [VILAZODONE],Compound metabolized

# Experiment: The drug is tested on Bacteroides sp. WH2 strain: WH2 for biotransformation. The drug concentrations were measured before and after a 12-h incubation by liquid-chromatography-coupled mass spectrometry (LC–MS)
# Conditions: bacteroides sp. wh2, 12 h, 2 µM
row,Structure (SMILES),Bacterial Biotransformation
1,Nc1nc2ccc(OC(F)(F)F)cc2s1 [RILUZOLE],Compound NOT metabolized
2,CC(=O)OCC(=O)[C@@]1(O)[C@@H](C)C[C@H]2[C@@H]3CCC4=CC(=O)C=C[C@]4(C)[C@@]3(F)[C@@H](O)C[C@@]21C [BETAMETHASONE ACETATE],Compound NOT metabolized
3,N#Cc1ccc2[nH]cc(CCCCN3CCN(c4ccc5oc(C(N)=O)cc5c4)CC3)c2c1 [VILAZODONE],Compound metabolized

# Experiment: The drug is tested on Anaerococcus hydrogenalis strain: DSM7454 for biotransformation. The drug concentrations were measured before and after a 12-h incubation by liquid-chromatography-coupled mass spectrometry (LC–MS)
# Conditions: 2 µM
row,Structure (SMILES),Bacterial Biotransformation
1,Nc1nc2ccc(OC(F)(F)F)cc2s1 [RILUZOLE],Compound NOT metabolized
2,CC(=O)OCC(=O)[C@@]1(O)[C@@H](C)C[C@H]2[C@@H]3CCC4=CC(=O)C=C[C@]4(C)[C@@]3(F)[C@@H](O)C[C@@]21C [BETAMETHASONE ACETATE],Compound NOT metabolized
3,N#Cc1ccc2[nH]cc(CCCCN3CCN(c4ccc5oc(C(N)=O)cc5c4)CC3)c2c1 [VILAZODONE],Compound NOT metabolized

# Conditions: bacteroides stercoris, 12 h, 2 µM
# Description: The drug is tested on Bacteroides stercoris strain: ATCC43183 for biotransformation. The drug concentrations were measured before and after a 12-h incubation by liquid-chromatography-coupled mass spectrometry (LC–MS)
row,Structure (SMILES),Bacterial Biotransformation
1,Nc1nc2ccc(OC(F)(F)F)cc2s1 [RILUZOLE],Compound metabolized
2,CC(=O)OCC(=O)[C@@]1(O)[C@@H](C)C[C@H]2[C@@H]3CCC4=CC(=O)C=C[C@]4(C)[C@@]3(F)[C@@H](O)C[C@@]21C [BETAMETHASONE ACETATE],Compound metabolized
3,N#Cc1ccc2[nH]cc(CCCCN3CCN(c4ccc5oc(C(N)=O)cc5c4)CC3)c2c1 [VILAZODONE],Compound metabolized

# Conditions: bacteroides eggerthii, 12 h, 2 µM
# Description: The drug is tested on Bacteroides eggerthii strain: DSM20697 for biotransformation. The drug concentrations were measured before and after a 12-h incubation by liquid-chromatography-coupled mass spectrometry (LC–MS)
row,Structure (SMILES),Bacterial Biotransformation
1,Nc1nc2ccc(OC(F)(F)F)cc2s1 [RILUZOLE],Compound metabolized
2,N#Cc1ccc2[nH]cc(CCCCN3CCN(c4ccc5oc(C(N)=O)cc5c4)CC3)c2c1 [VILAZODONE],Compound metabolized

# Conditions: bacteroides intestinalis, 12 h, 2 µM
# Description: The drug is tested on Bacteroides intestinalis strain: DSM17393 for biotransformation. The drug concentrations were measured before and after a 12-h incubation by liquid-chromatography-coupled mass spectrometry (LC–MS)
row,Structure (SMILES),Bacterial Biotransformation
1,Nc1nc2ccc(OC(F)(F)F)cc2s1 [RILUZOLE],Compound NOT metabolized
2,N#Cc1ccc2[nH]cc(CCCCN3CCN(c4ccc5oc(C(N)=O)cc5c4)CC3)c2c1 [VILAZODONE],Compound metabolized

# Conditions: enterocloster bolteae, 12 h, 2 µM
# Description: The drug is tested on Clostridium bolteae strain: ATCCBAA-613 for biotransformation. The drug concentrations were measured before and after a 12-h incubation by liquid-chromatography-coupled mass spectrometry (LC–MS)
row,Structure (SMILES),Bacterial Biotransformation
1,Nc1nc2ccc(OC(F)(F)F)cc2s1 [RILUZOLE],Compound NOT metabolized
2,CC(=O)OCC(=O)[C@@]1(O)[C@@H](C)C[C@H]2[C@@H]3CCC4=CC(=O)C=C[C@]4(C)[C@@]3(F)[C@@H](O)C[C@@]21C [BETAMETHASONE ACETATE],Compound NOT metabolized
3,N#Cc1ccc2[nH]cc(CCCCN3CCN(c4ccc5oc(C(N)=O)cc5c4)CC3)c2c1 [VILAZODONE],Compound NOT metabolized

# Experiment: The drug is tested on Collinsella aerofaciens strain: ATCC25986 for biotransformation. The drug concentrations were measured before and after a 12-h incubation by liquid-chromatography-coupled mass spectrometry (LC–MS)
# Conditions: 2 µM
row,Structure (SMILES),Bacterial Biotransformation
1,Nc1nc2ccc(OC(F)(F)F)cc2s1 [RILUZOLE],Compound NOT metabolized
2,N#Cc1ccc2[nH]cc(CCCCN3CCN(c4ccc5oc(C(N)=O)cc5c4)CC3)c2c1 [VILAZODONE],Compound NOT metabolized

# Experiment: The drug is tested on Bifidobacterium longum subsp. Infantis strain: CCUG52486 for biotransformation. The drug concentrations were measured before and after a 12-h incubation by liquid-chromatography-coupled mass spectrometry (LC–MS)
# Conditions: 2 µM
row,Structure (SMILES),Bacterial Biotransformation
1,Nc1nc2ccc(OC(F)(F)F)cc2s1 [RILUZOLE],Compound NOT metabolized
2,CC(=O)OCC(=O)[C@@]1(O)[C@@H](C)C[C@H]2[C@@H]3CCC4=CC(=O)C=C[C@]4(C)[C@@]3(F)[C@@H](O)C[C@@]21C [BETAMETHASONE ACETATE],Compound NOT metabolized
3,N#Cc1ccc2[nH]cc(CCCCN3CCN(c4ccc5oc(C(N)=O)cc5c4)CC3)c2c1 [VILAZODONE],Compound metabolized

# Experiment: The drug is tested on Bacteroides coprophilus strain: DSM18228 for biotransformation. The drug concentrations were measured before and after a 12-h incubation by liquid-chromatography-coupled mass spectrometry (LC–MS)
# Conditions: 2 µM
row,Structure (SMILES),Bacterial Biotransformation
1,Nc1nc2ccc(OC(F)(F)F)cc2s1 [RILUZOLE],Compound NOT metabolized
2,CC(=O)OCC(=O)[C@@]1(O)[C@@H](C)C[C@H]2[C@@H]3CCC4=CC(=O)C=C[C@]4(C)[C@@]3(F)[C@@H](O)C[C@@]21C [BETAMETHASONE ACETATE],Compound metabolized
3,N#Cc1ccc2[nH]cc(CCCCN3CCN(c4ccc5oc(C(N)=O)cc5c4)CC3)c2c1 [VILAZODONE],Compound metabolized

# Experiment: The drug is tested on Edwardsiella tarda strain: ATCC23685 for biotransformation. The drug concentrations were measured before and after a 12-h incubation by liquid-chromatography-coupled mass spectrometry (LC–MS)
# Conditions: 2 µM
row,Structure (SMILES),Bacterial Biotransformation
1,Nc1nc2ccc(OC(F)(F)F)cc2s1 [RILUZOLE],Compound NOT metabolized
2,CC(=O)OCC(=O)[C@@]1(O)[C@@H](C)C[C@H]2[C@@H]3CCC4=CC(=O)C=C[C@]4(C)[C@@]3(F)[C@@H](O)C[C@@]21C [BETAMETHASONE ACETATE],Compound NOT metabolized
3,N#Cc1ccc2[nH]cc(CCCCN3CCN(c4ccc5oc(C(N)=O)cc5c4)CC3)c2c1 [VILAZODONE],Compound NOT metabolized

# Experiment: The drug is tested on Clostridium asparagiforme strain: DSM15981 for biotransformation. The drug concentrations were measured before and after a 12-h incubation by liquid-chromatography-coupled mass spectrometry (LC–MS)
# Type: ADME
# Parameters: dose 2 uM, timepoint 0 vs 12 hours
# Conditions: enterocloster asparagiformis, 2 µM
row,Structure (SMILES),Bacterial Biotransformation
1,CC(=O)OCC(=O)[C@@]1(O)[C@@H](C)C[C@H]2[C@@H]3CCC4=CC(=O)C=C[C@]4(C)[C@@]3(F)[C@@H](O)C[C@@]21C [BETAMETHASONE ACETATE],Compound NOT metabolized

# Experiment: The drug is tested on Providencia stuartii strain: ATCC25827 for biotransformation. The drug concentrations were measured before and after a 12-h incubation by liquid-chromatography-coupled mass spectrometry (LC–MS)
# Conditions: 2 µM
row,Structure (SMILES),Bacterial Biotransformation
1,Nc1nc2ccc(OC(F)(F)F)cc2s1 [RILUZOLE],Compound NOT metabolized
2,N#Cc1ccc2[nH]cc(CCCCN3CCN(c4ccc5oc(C(N)=O)cc5c4)CC3)c2c1 [VILAZODONE],Compound metabolized

# Experiment: The drug is tested on Bacteroides pectinophilus strain: ATCC43243 for biotransformation. The drug concentrations were measured before and after a 12-h incubation by liquid-chromatography-coupled mass spectrometry (LC–MS)
# Conditions: 2 µM
row,Structure (SMILES),Bacterial Biotransformation
1,Nc1nc2ccc(OC(F)(F)F)cc2s1 [RILUZOLE],Compound NOT metabolized
2,CC(=O)OCC(=O)[C@@]1(O)[C@@H](C)C[C@H]2[C@@H]3CCC4=CC(=O)C=C[C@]4(C)[C@@]3(F)[C@@H](O)C[C@@]21C [BETAMETHASONE ACETATE],Compound NOT metabolized
3,N#Cc1ccc2[nH]cc(CCCCN3CCN(c4ccc5oc(C(N)=O)cc5c4)CC3)c2c1 [VILAZODONE],Compound NOT metabolized
